Test results taken from paper PMC6263544, “Second-generation pterocarpanquinones: synthesis and antileishmanial activity” (The Journal of Venomous Animals and Toxins Including …, 2018).
“Also recorded” adds a separate entry of the source.

Legend:
[1] = Macrophage toxicity test (resazurin); assay type: cell-based, Swiss mice; settings: mouse; peritoneal macrophages of Swiss mice, 72 h, resazurin, Mean ± SEM; read-out: Murine Macrophage CC50
Procedure: (§1) To evaluate the toxicity of pterocarpanquinones 2a-f, peritoneal macrophages of Swiss mice (2 × 10^6/mL) were incubated with pterocarpanquinones (1.25–100 μM) for 72 h at 37 °C/5% CO2. Viability was evaluated with resazurin assay as described for the antipromastigote test. The 50% cytotoxicity concentration (CC50) was determined by nonlinear regression analysis in the software GraphPad Prism 5.

[2] = test system: L. amazonensis promastigotes; assay: Antipromastigote test, L. amazonensis; assay type: cell-based, Leishmania amazonensis; settings: for IC50: Leishmania amazonensis, 72 h, resazurin, Mean ± SEM, read-out: L. amazonensis Promastigote IC50
Procedure: New cultures of promastigotes were obtained from infected Balb/C mice. […] A stock solution of the compounds was prepared at 50 mM in dimethylsulfoxide (Sigma Aldrich). The maximum solvent concentration used in the assays was 0.4% in a final volume per well of 200 μL. The cultures were initiated with 1.0 × 10^6 cells/ml and maintained at 26 °C for 72 h. Inhibition of parasitic growth was determined by cell viability indicator, resazurin [23], with excitation λ = 560 nm and emission λ = 590 nm or the number of parasites was then counted in a Neubauer chamber (experiments with L. braziliensis).

[3] = test system: L. braziliensis promastigotes; assay: Antipromastigote test, L. braziliensis; assay type: cell-based; settings: for IC50: Leishmania braziliensis, 72 h, parasites counted in Neubauer chamber, Mean ± SEM, read-out: L. braziliensis Promastigote IC50
Procedure: L. braziliensis (MCAN/BR/98/R619) was routinely isolated from hamster lesions and maintained as promastigotes in Schneider’s insect medium containing 20% HIFCS and 100 μg/ml gentamicin (Schering-Plough). New cultures of promastigotes were obtained from an infected hamster.
(§2) Leishmania promastigotes of three species were incubated in 96-well plates (Nunc, Roskilde, Denmark) under the conditions described above in either the absence or presence of different concentrations of pterocarpanquinones 2a-f (0-100 μM). A stock solution of the compounds was prepared at 50 mM in dimethylsulfoxide (Sigma Aldrich). The maximum solvent concentration used in the assays was 0.4% in a final volume per well of 200 μL. The cultures were initiated with 1.0 × 10^6 cells/ml and maintained at 26 °C for 72 h. Inhibition of parasitic growth was determined by cell viability indicator, resazurin [23], with excitation λ = 560 nm and emission λ = 590 nm or the number of parasites was then counted in a Neubauer chamber (experiments with L. braziliensis). The 50% inhibitory concentration (IC50) was determined by nonlinear regression analysis in the software GraphPad Prism 5.

[4] = test system: L. infantum promastigotes; assay: Antipromastigote test, L. infantum; assay type: cell-based, Leishmania infantum; settings: for IC50: Leishmania infantum, 72 h, resazurin, Mean ± SEM, read-out: L. infantum Promastigote IC50
Procedure: Leishmania infantum (MHOM/MA67ITMAP263) parasites were isolated from female BALB/c mice infected and cultured at 26 °C in Schneider’s insect medium supplemented with 20% HIFCS, streptomycin at 100 μg/ml and penicillin at 100 U/ml. New cultures of promastigotes were obtained from infected Balb/C mice.
as §2

[5] = test system: intracellular amastigotes of L. amazonensis; assay: Antiamastigote test, L. amazonensis in mouse peritoneal macrophages; assay type: cell-based, Leishmania amazonensis; settings: for L. amazonensis SI (Selective Index): CC50 in Macrophages/IC50 in intracellular amastigotes; for IC50: Leishmania amazonensis, Peritoneal macrophage, intracellular amastigotes in mouse peritoneal macrophages, 72 h, infection index, Mean ± SEM, read-out: L. amazonensis Amastigote IC50
Procedure: (§3) For the test against intracellular amastigotes of L. amazonensis and L. infantum, resident peritoneal macrophages (swiss mouse) were plated in RPMI (Sigma-Aldrich) at 2 × 10^6/mL (0.4 mL/well) in Lab-Tek eight-chamber slides (Nunc, Roskilde, Denmark) and incubated at 37 °C in 5% CO2 for 1 h. Stationary-phase L. amazonensis and L. infantum promastigotes were added at respective parasite/macrophage ratios of 3:1 and 5:1 for 4 h. After washing three times, pterocarpanquinones 2a-f at various concentrations were added for 72 h. Next, the slides were stained using an Instant Prov hematological dye system (Newprov, Curitiba, Brazil). The number of amastigotes was determined by counting at least 100 macrophages per sample.
(§4) The results were expressed as an infection index (% infected cells×number of amastigotes/total number of macrophages). The 50% inhibitory concentration (IC50) was determined by nonlinear regression analysis in the software GraphPad Prism 5.

[6] = test system: intracellular amastigotes of L. braziliensis; assay: Antiamastigote test, L. braziliensis in golden hamster macrophages; assay type: cell-based; settings: for L. braziliensis SI (Selective Index): CC50 in Macrophages/IC50 in intracellular amastigotes; for IC50: Leishmania braziliensis, Peritoneal macrophage, intracellular amastigotes in golden hamster peritoneal macrophages, 72 h, infection index, Mean ± SEM, read-out: L. braziliensis Amastigote IC50
Procedure: Macrophages of golden hamsters were used in assays against intracellular amastigotes of L. braziliensis due to the natural resistance of mice. Resident macrophages were obtained from the peritoneal cells of golden hamsters after a peritoneal injection of 10 mL of Dulbecco’s Modified Eagle’s medium (DMEM) (Sigma-Aldrich). The peritoneal macrophages were plated onto glass coverslips placed within the wells of a 24-well culture plate and incubated at 37 °C in 5% CO2 for 1 h. After removing the nonadherent cells, the monolayers were infected with stationary-phase L. braziliensis promastigotes at a 5:1 parasite/macrophage ratio for 4 h. The infected macrophages were washed and incubated with several pterocarpanquinone concentrations (0-25 μM) for 72 h. The monolayers were then stained with Giemsa, and at least 100 infected macrophages per sample were counted under optical microscopy.
as §4

[7] = test system: intracellular amastigotes of L. infantum; assay: Antiamastigote test, L. infantum in mouse peritoneal macrophages; assay type: cell-based, Leishmania infantum; settings: for L. infantum SI (Selective Index): CC50 in Macrophages/IC50 in intracellular amastigotes; for IC50: Leishmania infantum, Peritoneal macrophage, intracellular amastigotes in mouse peritoneal macrophages, infection index, Mean ± SEM, read-out: L. infantum Amastigote IC50; for IC50 / activity against L. infantum amastigotes (in words): 72 h; for activity against L. infantum amastigotes (in words): intracellular amastigotes
Procedure: as §3, §4

[8] = test system: peritoneal macrophages of Swiss mice; assay: Macrophage toxicity test (resazurin); assay type: cell-based
Procedure: as §1

[9] = test system: promastigotes of L. infantum; assay: Mitochondrial membrane potential (ΔΨm) test (rhodamine 123, flow cytometry); assay type: cell-based, Leishmania infantum; settings: for Δѱm index of variation (IV): Rh123, IV = (MT − MC)/MC, mean ± SD; for effect on ΔΨm (in words): rhodamine 123, flow cytometry
Procedure: To determine the effect of pterocarpanquinones 2a-f on the ΔΨm, promastigotes of L. infantum (5 × 10^6 cells/mL) were incubated in the presence of 0–5 μM of derivatives at 26 °C. After 4 h, the parasites were incubated for 15 min with 10 μg/mL rhodamine 123 (Rh123) (Sigma-Aldrich). Data acquisition of 10,000 events and analysis were performed using the flow cytometer FACSCalibur (Becton-Dickinson, Rutherford, NJ, USA). Alteration in ΔΨm was quantified using an index of variation (IV) obtained by the eq. IV = (MT − MC)/MC [24], where MT is the median of the fluorescence of Rh123 for treated parasites and MC is the median of the fluorescence of the control parasites. Negative IV values correspond to depolarization of the mitochondrial membrane. The FCCP (Carbonyl cyanide-p-Trifluoromethoxyphenylhydrazone) 20 μM was used as positive control.

[10] = test system: promastigotes of L. infantum; assay: Measurement of reactive oxygen species (H2DCFDA); assay type: cell-based, Leishmania infantum; settings: 1.25–5.0 μM; for ROS production, dependence on concentration: 4 h; for Early ROS production after 4 h of treatment: compared with control
Procedure: Intracellular ROS levels were measured in treated and untreated cells as described previously. Briefly, 1 × 10^7 promastigotes/mL of L. infantum were incubated in Schneider’s insect medium supplemented with 20% HIFCS at 26 °C with concentrations of pterocarpanquinones 2a-f ranging from 0 to 5 μM in the presence of 20 μM H2DCFDA (Molecular Probes, Eugene, OR, USA). The fluorescence was monitored at 1 h intervals for 4 h using 485 and 530 nm as excitation and emission wavelengths, respectively, using the spectrofluorometer Spectra Max Gemini XPS (Molecular Devices, Silicon Valley, CA, USA). Antimycin A 10 μM was used as positive control.

[11] = 1.25 μM, 4 h, negative = depolarization
[12] = 2.5 μM, 4 h, negative = depolarization

SMILES	CC50 at 72 h [1] [µM]	IC50 [2] [µM]	IC50 [3] [µM]	IC50 [4] [µM]	L. amazonensis SI (Selective Index) [5]	IC50 [5] [µM]	L. braziliensis SI (Selective Index) [6]	IC50 [6] [µM]	IC50 [7] [µM]	Δѱm index of variation (IV) [9, 11]	Δѱm index of variation (IV) [9, 12]	ROS production, dependence on concentration [10]	also measured
N=C(N)c1ccc(OCCCCCOc2ccc(C(=N)N)cc2)cc1 [Pentamidine, reference compound]	8.5 ± 1.25	4.8 ± 0.09	13 ± 0.04	5.7 ± 0.12	4.47	1.9 ± 0.1	1.1	7.7 ± 2.4	0.4 ± 0.2	–	–	–	L. infantum SI (Selective Index) [7]: 21.25
O=C1C2=C(C(=O)c3ccccc31)[C@H]1COc3cc4c(cc3[C@H]1O2)OCO4 [LQB 168 (2d)]	77.7 ± 1.1	1.37 ± 0.04	28.2 ± 1.61	2 ± 0.4	172.6	0.45 ± 0.06	11.03	7.04 ± 2.29	> 50	−0.369 ± 0.08	−0.194 ± 0.18	–	fold higher CC50 than LQB-118 (less cytotoxic) ([8]; peritoneal macrophages, CC50 77.7 μM vs 18.46 μM): 4.2 fold; activity against L. infantum amastigotes (in words) [7]: no significant activity
O=C1C2=C(C(=O)c3ccccc31)[C@H]1CCc3ccccc3[C@H]1O2 (relative stereo) [LQB 187 (2a)]	49.3 ± 1.1	1.05 ± 0.21	23.1 ± 1.63	1.2 ± 0.2	54.7	0.9 ± 0.1	5.0	9.85 ± 1.37	> 25	−0.103 ± 0.16	−0.368 ± 0.03	–	–
COc1ccc2c(c1)CC[C@@H]1C3=C(O[C@H]21)C(=O)c1ccccc1C3=O (relative stereo) [LQB 474 (2e)]	14.9 ± 1.43	0.5 ± 0.07	12.3 ± 0.45	2.2 ± 0.3	5.74	2.6 ± 0.8	1.74	8.53 ± 1.12	> 10	−0.582 ± 0.1	−0.701 ± 0.01	only increased ROS production when the parasite was incubated with the highest concentration of 5 μM	effect on ΔΨm (in words) ([9]; 4 h): greater depolarization
O=C1C2=C(C(=O)c3ccccc31)[C@H]1COc3ccc(Cl)cc3[C@H]1O2 [LQB 236 (2c)]	43.9 ± 0.6	1.15 ± 0.18	17.9 ± 1.12	1.8 ± 0.3	73.16	0.6 ± 0.13	5.26	8.34 ± 1.47	> 25	−0.360 ± 0.16	−0.258 ± 0.17	only increased ROS production when the parasite was incubated with the highest concentration of 5 μM	increased cytotoxicity when compared to 2b ([8]; macrophages): 2.6 times; Early ROS production after 4 h of treatment ([10]; listed as 2c): induction of increased ROS production
COc1ccc2c(c1)[C@H]1OC3=C(C(=O)c4ccccc4C3=O)[C@H]1CC2 (relative stereo) [LQB 475 (2f)]	–	0.4 ± 0.06	10.5 ± 1.01	1.4 ± 0.7	23.76	2.1 ± 0.4	5.53	9.02 ± 1.64	> 40	−0.668 ± 0.01	−0.707 ± 0.01	–	effect on ΔΨm (in words) ([9]; 4 h): greater depolarization
O=C1C2=C(C(=O)c3ccccc31)[C@H]1COc3ccccc3[C@H]1O2 [LQB 182 (2b)]	16.9 ± 1.2	1.08 ± 0.2	11 ± 1.25	1 ± 0.3	19.8	0.85 ± 0.02	2.15	7.84 ± 2.46	3.6 ± 0.9	−0.397 ± 0.07	−0.402 ± 0.04	increased ROS generation dependent on compound concentration	improvement of activity, 2b in comparison to 1 ([2]; promastigotes of L. amazonensis): about 1.6 times; decrease in antileishmanial activity, 2b in comparison to 1 ([3]; promastigotes of L. braziliensis): 3.2 times; activity relative to deoxy derivative 2a ([3]; promastigotes of L. braziliensis, listed as 2b): approximately twice as active; also recorded: approximately two times more active; improvement of activity, 2b in comparison to 1 ([4]; promastigotes of L. infantum): ~4 times; improvement of activity, 2b in comparison to 1 ([5]; amastigotes of L. amazonensis): about 1.6 times; L. infantum SI (Selective Index) [7]: 4.69; activity against L. infantum amastigotes (in words) [7]: the only one active; Early ROS production after 4 h of treatment ([10]; listed as 2b): induction of increased ROS production
N#CC(C#N)=NNc1ccc(OC(F)(F)F)cc1 [FCCP, Carbonyl cyanide-p-Trifluoromethoxyphenylhydrazone, reference compound]	–	–	–	–	–	–	–	–	–	–	–	–	Δѱm index of variation (IV) ([9]; 20 μM (positive control)): −0.727 ± 0.01
